“And” between values parts separate entries of the source, which are not always exact repeats. Identical values can stand only once. Inconclusive results and toxic doses are left out. Rule as the data show it: active = T/C of 150% or more; inactive = T/C below 125%. Peptide text beside a SMILES is read from it. * marks the point of attachment. Cbz = O=C(OCc1ccccc1)*
Test system: L1210 leukemia ip in BDF1 mice, survival T/C
Assay: NCI In Vivo Anticancer Drug Screen. Data for tumor model L1210 Leukemia (intraperitoneal) in B6D2F1 (BDF1) mice
Conditions: endpoint: mean survival time, higher = longer survival
Procedure, shortened: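 Tumor cells were implanted, animals were treated, and survival was followed. The result divides the treated measurement by the vehicle-control measurement.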

[1] = dose: 100.0 mg/kg/injection, schedule: Q01DX001 (ip), vehicle: saline
[2] = dose: 25.0 mg/kg/injection, schedule: Q04DX003 (ip), vehicle: saline
[3] = dose: 50.0 mg/kg/injection, schedule: Q04DX003 (ip), vehicle: saline
[4] = dose: 100.0 mg/kg/injection, schedule: Q04DX003 (ip), vehicle: Klucel (hydroxypropylcellulose) (HPC)
[5] = dose: 200.0 mg/kg/injection, schedule: Q04DX003 (ip), vehicle: Klucel (hydroxypropylcellulose) (HPC)
[6] = dose: 400.0 mg/kg/injection, schedule: Q04DX003 (ip), vehicle: Klucel (hydroxypropylcellulose) (HPC)
[7] = dose: 200.0 mg/kg/injection, schedule: Q04DX003 (ip), vehicle: saline with Tween-80
[8] = dose: 400.0 mg/kg/injection, schedule: Q04DX003 (ip), vehicle: saline with Tween-80
[9] = dose: 50.0 mg/kg/injection, schedule: Q01DX009 (ip), vehicle: saline
[10] = dose: 100.0 mg/kg/injection, schedule: Q01DX009 (ip), vehicle: saline
[11] = dose: 100.0 mg/kg/injection, schedule: Q04DX003 (ip), vehicle: saline
[12] = dose: 200.0 mg/kg/injection, schedule: Q04DX003 (ip), vehicle: saline
[13] = dose: 200.0 mg/kg/injection, schedule: Q01DX009 (ip), vehicle: saline
[14] = dose: 400.0 mg/kg/injection, schedule: Q01DX009 (ip), vehicle: saline
[15] = dose: 400.0 mg/kg/injection, schedule: Q04DX003 (ip), vehicle: saline
[16] = dose: 50.0 mg/kg/injection, schedule: Q04DX003 (ip), vehicle: Klucel (hydroxypropylcellulose) (HPC)
[17] = dose: 200.0 mg/kg/injection, schedule: Q01DX001 (ip), vehicle: saline
[18] = dose: 400.0 mg/kg/injection, schedule: Q01DX001 (ip), vehicle: saline
[19] = dose: 100.0 mg/kg/injection, schedule: Q01DX009 (ip), vehicle: Klucel (hydroxypropylcellulose) (HPC)
[20] = dose: 200.0 mg/kg/injection, schedule: Q01DX009 (ip), vehicle: Klucel (hydroxypropylcellulose) (HPC)
[21] = dose: 400.0 mg/kg/injection, schedule: Q01DX009 (ip), vehicle: Klucel (hydroxypropylcellulose) (HPC)
[22] = dose: 25.0 mg/kg/injection, schedule: Q01DX009 (ip), vehicle: Klucel (hydroxypropylcellulose) (HPC)
[23] = dose: 50.0 mg/kg/injection, schedule: Q01DX009 (ip), vehicle: Klucel (hydroxypropylcellulose) (HPC)
[24] = dose: 100.0 mg/kg/injection, schedule: Q04DX002 (ip), vehicle: saline with Tween-80
[25] = dose: 200.0 mg/kg/injection, schedule: Q04DX002 (ip), vehicle: saline with Tween-80
[26] = dose: 400.0 mg/kg/injection, schedule: Q04DX002 (ip), vehicle: saline with Tween-80
[27] = dose: 100.0 mg/kg/injection, schedule: Q04DX002 (ip), vehicle: Klucel (hydroxypropylcellulose) (HPC)
[28] = dose: 200.0 mg/kg/injection, schedule: Q04DX002 (ip), vehicle: Klucel (hydroxypropylcellulose) (HPC)
[29] = dose: 400.0 mg/kg/injection, schedule: Q04DX002 (ip), vehicle: Klucel (hydroxypropylcellulose) (HPC)

Measured: T/C

CN(C)c1ccc(/C=N/O)cc1
inactive: dose: 100.0 mg/kg/injection, schedule: Q04DX002 (ip), vehicle: saline 103 % of control | dose: 200.0 mg/kg/injection, schedule: Q04DX002 (ip), vehicle: saline 95 % of control | dose: 400.0 mg/kg/injection, schedule: Q04DX002 (ip), vehicle: saline 95 % of control

CCC1=CC2CC3(C(=O)OC)c4[nH]c5ccccc5c4CC[N+](Cc4ccccc4)(C2)C13 (stereo unspecified)
inactive: [1] 100 % of control

CN1CCCN(C)C1c1ccccc1O
inactive: dose: 12.5 mg/kg/injection, schedule: Q04DX003 (ip), vehicle: saline 96 % of control | [2] 106 % of control | [3] 101 % of control

ON=C(c1ccccn1)c1ccccn1
inactive: dose: 100.0 mg/kg/injection, schedule: Q01DX009 (ip), vehicle: gum acacia 93 % of control | [4] 97 % of control | dose: 200.0 mg/kg/injection, schedule: Q01DX009 (ip), vehicle: gum acacia 88 % of control | [5] 93 % of control | dose: 400.0 mg/kg/injection, schedule: Q01DX009 (ip), vehicle: gum acacia 98 % of control | [6] 95 % of control

CC(=O)/C(C)=C\c1ccc(O)cc1
inactive: dose: 100.0 mg/kg/injection, schedule: Q04DX003 (ip), vehicle: saline with Tween-80 91 % of control | [7] 98 % of control | [8] 102 % of control

CC(C)(C)OC(=O)N1Cc2cc3ccccc3nc2C1
inactive: [9] 98 % of control | [10] 94 % of control | [11] 96 % of control | [12] 100 % of control

CC(C)(N)COS(=O)(=O)O
inactive: [10] 106 % of control | [11] 101 % of control | [13] 96 % of control | [12] 114 % of control | [14] 105 % of control | [15] 96 % of control

CC(=O)NN1C(=O)c2ccccc2C1=O
inactive: [16] 97 % of control | [4] 104 % of control | [5] 101 % of control

COC(=O)C1CC2(Br)C(Br)=C(Br)C1(Br)C2(Br)Br (stereo unspecified)
inactive: [1] 88 % of control | [10] 102 % of control | [17] 100 % of control | [13] 98 % of control | [18] 88 % of control | [14] 91 % of control

CCOC(=O)CNC(=O)C(CC(C)C)NC(=O)C1CCCN1C(=O)OCc1ccccc1 (stereo not drawn) (Cbz-Pro-Leu-Gly-OEt; configuration not given here)
inactive: [19] 105 % of control | [4] 107 % of control | [20] 89 % of control | [5] 93 % of control | [21] 110 % of control | [6] 98 % of control

CCCC(=O)N(C(=O)CCC)c1cc2c3c(c1)CCCN3CCC2
inactive: dose: 12.5 mg/kg/injection, schedule: Q04DX003 (ip), vehicle: Klucel (hydroxypropylcellulose) (HPC) 96 % of control | [22] 95 % of control | dose: 25.0 mg/kg/injection, schedule: Q04DX003 (ip), vehicle: Klucel (hydroxypropylcellulose) (HPC) 93 % of control | [23] 92 % of control | [16] 95 % of control | [11] 93 % of control

Cc1cccc(Cl)c1NC(=O)CN(C)C
inactive: [1] 104 % of control | [17] 98 % of control

COc1ccc(-c2cc(C(=O)N/N=C/c3ccc([N+](=O)[O-])cc3)c3ccc(C)cc3n2)cc1OC
inactive: [7] 86 % of control | [8] 94 % of control

CCCCCCCCCCCCCCCC(=O)O
inactive: [19] 100 % of control | [4] 98 % of control | [20] 92 % of control | [5] 98 % of control | [21] 97 % of control | [6] 97 % of control

COc1cc(/C=N/NC(=O)CC(C)O)ccc1O (stereo unspecified)
inactive: [1] 104 % of control | [17] 102 % of control | [18] 104 % of control

O=C1c2cccc3cc([N+](=O)[O-])cc(c23)C(=O)N1Cc1ccco1
inactive: [24] 95 % of control | [25] 120 % of control | [26] 88 % of control

Cc1ccnc(NC(=O)Nc2ccc(C)cc2[N+](=O)[O-])c1
inactive: [27] 99 % of control | [28] 105 % of control | [29] 115 % of control

O=C(NNC(=S)Nc1cccc(Cl)c1)c1ccncc1
inactive: [22] 104 % of control | [23] 96 % of control | [19] 96 % of control

O=C(O)c1cc(S(=O)(=O)F)ccc1O
inactive: [24] 101 % of control | [25] 101 % of control | [26] 104 % of control

COC(=O)C1=COC(C)C2CN3CCc4c([nH]c5cc(OC)c(OC)cc45)C3CC12 (stereo unspecified)
inactive: dose: 50.0 mg/kg/injection, schedule: Q01DX Z (ip), vehicle: carboxymethylcellulose (CMC) 103 % of control | dose: 100.0 mg/kg/injection, schedule: Q01DX Z (ip), vehicle: carboxymethylcellulose (CMC) 105 % of control | dose: 200.0 mg/kg/injection, schedule: Q01DX Z (ip), vehicle: carboxymethylcellulose (CMC) 100 % of control | dose: 300.0 mg/kg/injection, schedule: Q01DX Z (ip), vehicle: carboxymethylcellulose (CMC) 105 % of control

CC(=O)CC(=O)CC(C)C
inactive: dose: 50.0 mg/kg/injection, schedule: Q01DX001 (ip), vehicle: saline 105 % of control | [1] 103 % of control | [17] 100 % of control | [18] 94 % of control

CNc1cc(Cl)c(Cl)cc1[N+](=O)[O-]
inactive: dose: 100.0 mg/kg/injection, schedule: Q01DX009 (ip), vehicle: saline sonified 98 % of control | [4] 95 % of control | dose: 200.0 mg/kg/injection, schedule: Q01DX009 (ip), vehicle: saline sonified 98 % of control | [5] 98 % of control | dose: 400.0 mg/kg/injection, schedule: Q01DX009 (ip), vehicle: saline sonified 98 % of control | [6] 104 % of control

CCOC(=O)C1CCCNC1 (stereo unspecified)
inactive: [10] 96 % of control | [11] 98 % of control | [13] 91 % of control | [12] 101 % of control | [14] 100 % of control | [15] 94 % of control

CC(C)(O)C#Cc1ccccc1
inactive: [23] 99 % of control | dose: 100.0 mg/kg/injection, schedule: Q01DX005 (ip), vehicle: Klucel (hydroxypropylcellulose) (HPC) 105 % of control | [19] 99 % of control | [27] 95 % of control | dose: 200.0 mg/kg/injection, schedule: Q01DX005 (ip), vehicle: Klucel (hydroxypropylcellulose) (HPC) 97 % of control | [20] 92 % of control | [28] 113 % of control | [29] 102 % of control

CC(C)(C)OC(=O)C(CC(=O)O)NC(=O)OCc1ccccc1 (stereo unspecified) (tested in a mixture with another compound)
inactive: dose: 25.0 mg/kg/injection, schedule: Q01DX009 (ip), vehicle: saline 101 % of control | [2] 94 % of control | [9] 104 % of control | [3] 94 % of control | [10] 106 % of control | [11] 100 % of control and 91 % of control

O=C1CC(Cl)C(=O)N1c1ccccc1 (stereo unspecified)
inactive: dose: 75.0 mg/kg/injection, schedule: Q01DX009 (ip), vehicle: saline with Tween-80 112 % of control | dose: 75.0 mg/kg/injection, schedule: Q04DX003 (ip), vehicle: saline with Tween-80 96 % of control | dose: 150.0 mg/kg/injection, schedule: Q01DX009 (ip), vehicle: saline with Tween-80 102 % of control | dose: 150.0 mg/kg/injection, schedule: Q04DX003 (ip), vehicle: saline with Tween-80 102 % of control | dose: 300.0 mg/kg/injection, schedule: Q04DX003 (ip), vehicle: saline with Tween-80 101 % of control
